Values of other authors as cited in article PMC8287028 (Frontiers in Veterinary Science, 2021).
Where “and” joins values, the source holds several entries; their conditions need not be identical. Equal values may be shown once.

Key:
prothrombin time = conditions: in vitro, dog plasma fortified with apixaban; cited from earlier work
[1] = male beagles, 5 mg/kg 14C labeled apixaban orally; cited from earlier work
[2] = horses, cited from earlier work
Factor Xa = conditions: cited from earlier work

COc1ccc(-n2nc(C(N)=O)c3c2C(=O)N(c2ccc(N4CCCCC4=O)cc2)CC3)cc1 [apixaban]
concentration required to double the prothrombin time (prothrombin time): 3,079 ng/ml and 6.7 μM
excretion of the unchanged compound via gastrointestinal routes [1]: 59%
excretion of the unchanged compound via renal route [1]: 7%
plasma concentrations after oral administration ([2]; oral): did not lead to quantifiable apixaban concentrations in plasma
time by which concentrations declined below the lower limit of quantitation ([2]; single injection): ≤ 8 h
half-life [2]: 1.3 h
protein binding [2]: highly protein bound
aXa activity observed after 12 h (Factor Xa; humans receiving a single intravenous apixaban injection): 150 ng/mL
aXa activity values typically observed in human treatment trials (Factor Xa; humans): approximately 150 ng/ml
